From US10245261B2, “Substituted indol-5-ol derivatives and their therapeutic applications” (NantBioScience, Inc., priority 2013, dated 2019)

Assays:
Experiment in all cases: KinaseProfiler kinase assay
Type in all cases: biochemical
CDK5/p35(h) = CDK5/p35(h) (Homo sapiens, UniProt Q00535)
Summary of the method: (§1)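 Using a filter-binding 33P format, reactions initiated by MgATP addition proceeded 40 min at room temperature before a 3% phosphoric acid stop. Filtermats were washed three times in 50 mM phosphoric acid and once in methanol, dried and counted.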

CDK6/cyclinD3(h) = CDK6/cyclinD3(h) (Homo sapiens, UniProt Q00534)
Summary of the method: as §1

CHK2(I157T)(h) = CHK2(I157T)(h) (Homo sapiens, UniProt O96017, I157T)
Summary of the method: as §1

CK2(h) = CK2(h) (Homo sapiens, UniProt P68400)
Summary of the method: as §1

CaMKIIβ(h) = CaMKIIβ(h) (Homo sapiens, UniProt Q13554)
Summary of the method: as §1

CaMKIV(h) = CaMKIV(h) (Homo sapiens, UniProt Q16566)
Summary of the method: as §1

DMPK(h) = DMPK(h) (Homo sapiens, UniProt Q09013)
Summary of the method: as §1

EGFR(L861Q)(h) = EGFR(L861Q)(h) (Homo sapiens, UniProt P00533, L861Q)
Summary of the method: as §1

EphA4(h) = EphA4(h) (Homo sapiens, UniProt P54764)
Summary of the method: as §1

EphB2(h) = EphB2(h) (Homo sapiens, UniProt P29323)
Summary of the method: as §1

FGFR1(V561M)(h) = FGFR1(V561M)(h) (Homo sapiens, UniProt P11362, V561M)
Chain of FGFR1(V561M)(h) (P11362 22-822 V561M): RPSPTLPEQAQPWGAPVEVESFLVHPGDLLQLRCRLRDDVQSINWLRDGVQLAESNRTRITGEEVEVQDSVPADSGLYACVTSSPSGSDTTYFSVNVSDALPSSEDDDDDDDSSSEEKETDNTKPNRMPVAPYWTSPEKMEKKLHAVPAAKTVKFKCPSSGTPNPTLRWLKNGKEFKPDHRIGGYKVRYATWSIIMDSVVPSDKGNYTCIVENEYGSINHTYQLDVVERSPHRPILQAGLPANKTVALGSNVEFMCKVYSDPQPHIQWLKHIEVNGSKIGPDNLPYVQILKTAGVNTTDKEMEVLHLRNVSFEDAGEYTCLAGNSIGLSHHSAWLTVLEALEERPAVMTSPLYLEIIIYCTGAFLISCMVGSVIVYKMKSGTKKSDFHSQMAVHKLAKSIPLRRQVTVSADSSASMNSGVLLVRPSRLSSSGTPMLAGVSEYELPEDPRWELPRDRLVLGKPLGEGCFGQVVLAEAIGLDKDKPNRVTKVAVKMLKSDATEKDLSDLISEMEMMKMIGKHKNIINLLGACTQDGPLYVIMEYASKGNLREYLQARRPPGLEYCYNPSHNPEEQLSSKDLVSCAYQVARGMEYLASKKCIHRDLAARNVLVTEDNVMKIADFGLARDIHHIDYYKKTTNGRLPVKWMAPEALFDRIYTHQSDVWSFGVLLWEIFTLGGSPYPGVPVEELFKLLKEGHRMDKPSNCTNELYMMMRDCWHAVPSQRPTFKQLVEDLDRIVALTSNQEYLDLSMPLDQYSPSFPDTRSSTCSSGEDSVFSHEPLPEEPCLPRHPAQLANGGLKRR
Summary of the method: as §1

Fer(h) = Fer(h) (Homo sapiens, UniProt P16591)
Summary of the method: as §1

Fes(h) = Fes(h) (Homo sapiens, UniProt P07332)
Chain of Fes(h) (P07332 whole entry): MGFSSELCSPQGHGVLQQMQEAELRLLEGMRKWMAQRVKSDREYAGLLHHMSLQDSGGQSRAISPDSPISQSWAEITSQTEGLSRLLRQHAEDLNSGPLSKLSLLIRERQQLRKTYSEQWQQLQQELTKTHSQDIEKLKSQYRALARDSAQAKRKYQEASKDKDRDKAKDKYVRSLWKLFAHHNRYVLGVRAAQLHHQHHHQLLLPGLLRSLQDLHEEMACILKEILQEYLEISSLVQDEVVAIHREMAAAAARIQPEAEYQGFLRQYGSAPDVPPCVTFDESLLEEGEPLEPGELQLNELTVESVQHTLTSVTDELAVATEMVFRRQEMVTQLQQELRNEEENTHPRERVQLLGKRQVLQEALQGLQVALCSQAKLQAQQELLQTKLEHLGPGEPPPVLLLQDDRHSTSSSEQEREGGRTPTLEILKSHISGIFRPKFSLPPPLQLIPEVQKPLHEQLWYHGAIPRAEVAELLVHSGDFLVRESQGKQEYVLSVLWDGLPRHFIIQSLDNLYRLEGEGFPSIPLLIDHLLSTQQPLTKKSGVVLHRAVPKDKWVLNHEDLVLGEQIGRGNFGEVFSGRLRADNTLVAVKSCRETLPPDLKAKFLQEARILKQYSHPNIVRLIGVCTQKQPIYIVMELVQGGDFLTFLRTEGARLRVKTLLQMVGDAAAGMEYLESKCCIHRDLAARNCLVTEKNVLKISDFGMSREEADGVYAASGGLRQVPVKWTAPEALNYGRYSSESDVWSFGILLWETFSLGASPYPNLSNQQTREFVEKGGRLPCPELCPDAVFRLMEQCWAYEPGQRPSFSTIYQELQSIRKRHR
Summary of the method: as §1

Itk(h) = Itk(h) (Homo sapiens, UniProt Q08881)
Chain of Itk(h) (Q08881 whole entry): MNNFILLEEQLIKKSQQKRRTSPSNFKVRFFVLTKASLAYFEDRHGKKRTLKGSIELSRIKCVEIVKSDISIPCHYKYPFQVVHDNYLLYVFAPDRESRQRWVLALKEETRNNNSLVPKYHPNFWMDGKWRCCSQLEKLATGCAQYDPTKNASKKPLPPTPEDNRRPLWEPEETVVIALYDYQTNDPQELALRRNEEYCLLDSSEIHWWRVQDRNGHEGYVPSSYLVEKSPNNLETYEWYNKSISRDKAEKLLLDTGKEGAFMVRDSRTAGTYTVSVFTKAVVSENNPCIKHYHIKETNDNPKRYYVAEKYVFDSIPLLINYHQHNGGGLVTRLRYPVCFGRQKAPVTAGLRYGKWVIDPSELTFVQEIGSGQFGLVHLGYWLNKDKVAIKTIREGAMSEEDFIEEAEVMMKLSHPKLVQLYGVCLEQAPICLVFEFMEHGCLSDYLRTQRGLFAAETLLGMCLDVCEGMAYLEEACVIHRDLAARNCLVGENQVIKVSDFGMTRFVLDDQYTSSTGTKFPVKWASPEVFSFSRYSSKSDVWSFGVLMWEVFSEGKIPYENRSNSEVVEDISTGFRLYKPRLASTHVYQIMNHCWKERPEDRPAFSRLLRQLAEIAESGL
Summary of the method: as §1

Lyn(h) = Lyn(h) (Homo sapiens, UniProt P07948)
Chain of Lyn(h) (P07948 whole entry): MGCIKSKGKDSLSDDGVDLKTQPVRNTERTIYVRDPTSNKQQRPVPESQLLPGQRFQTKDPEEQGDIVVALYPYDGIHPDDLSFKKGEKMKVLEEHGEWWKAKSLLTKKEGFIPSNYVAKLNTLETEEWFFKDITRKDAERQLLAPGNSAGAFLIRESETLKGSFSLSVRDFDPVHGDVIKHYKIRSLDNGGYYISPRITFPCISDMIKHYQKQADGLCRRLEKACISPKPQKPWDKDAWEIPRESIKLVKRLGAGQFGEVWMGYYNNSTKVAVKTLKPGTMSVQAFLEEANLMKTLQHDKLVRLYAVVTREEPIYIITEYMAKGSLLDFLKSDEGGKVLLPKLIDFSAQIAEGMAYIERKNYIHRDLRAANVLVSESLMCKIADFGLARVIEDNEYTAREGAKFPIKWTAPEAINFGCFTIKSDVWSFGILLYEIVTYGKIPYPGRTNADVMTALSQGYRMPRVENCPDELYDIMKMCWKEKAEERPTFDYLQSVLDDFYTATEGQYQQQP
Summary of the method: as §1

Lyn(m) = Lyn(m) (Mus musculus, UniProt P25911)
Chain of Lyn(m) (P25911 whole entry): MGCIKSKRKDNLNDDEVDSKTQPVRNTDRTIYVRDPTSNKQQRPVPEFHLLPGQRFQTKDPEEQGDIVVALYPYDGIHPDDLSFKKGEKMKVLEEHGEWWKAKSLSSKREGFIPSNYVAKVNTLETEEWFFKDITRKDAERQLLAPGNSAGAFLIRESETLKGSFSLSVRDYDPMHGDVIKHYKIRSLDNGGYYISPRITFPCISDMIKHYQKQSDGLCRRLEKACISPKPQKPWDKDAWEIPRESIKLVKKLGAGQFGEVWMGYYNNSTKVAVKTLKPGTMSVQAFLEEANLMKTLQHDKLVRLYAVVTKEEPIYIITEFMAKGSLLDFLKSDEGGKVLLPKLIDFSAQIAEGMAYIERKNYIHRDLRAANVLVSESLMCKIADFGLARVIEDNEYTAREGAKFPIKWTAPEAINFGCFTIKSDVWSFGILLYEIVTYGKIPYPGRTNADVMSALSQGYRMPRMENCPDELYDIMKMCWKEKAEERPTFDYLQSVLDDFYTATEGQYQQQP
Summary of the method: as §1

MAPK1(h) = MAPK1(h) (Homo sapiens, UniProt P27361)
Summary of the method: as §1

NEK2(h) = NEK2(h) (Homo sapiens, UniProt P51955)
Summary of the method: as §1

[1] = target: PI3 Kinase (p110α(E545K)/p85α)(m) (Mus musculus, UniProt P42337, E545K)
Summary of the method: as §1

PKBγ(h) = PKBγ(h) (Homo sapiens, UniProt Q9Y243)
Summary of the method: as §1

PKCμ(h) = PKCμ(h) (Homo sapiens, UniProt Q15139)
Summary of the method: as §1

PKG1β(h) = PKG1β(h) (Homo sapiens, UniProt Q13976)
Summary of the method: as §1

Pyk2(h) = Pyk2(h) (Homo sapiens, UniProt Q14289)
Summary of the method: as §1

RIPK2(h) = RIPK2(h) (Homo sapiens, UniProt O43353)
Chain of RIPK2(h) (O43353 whole entry): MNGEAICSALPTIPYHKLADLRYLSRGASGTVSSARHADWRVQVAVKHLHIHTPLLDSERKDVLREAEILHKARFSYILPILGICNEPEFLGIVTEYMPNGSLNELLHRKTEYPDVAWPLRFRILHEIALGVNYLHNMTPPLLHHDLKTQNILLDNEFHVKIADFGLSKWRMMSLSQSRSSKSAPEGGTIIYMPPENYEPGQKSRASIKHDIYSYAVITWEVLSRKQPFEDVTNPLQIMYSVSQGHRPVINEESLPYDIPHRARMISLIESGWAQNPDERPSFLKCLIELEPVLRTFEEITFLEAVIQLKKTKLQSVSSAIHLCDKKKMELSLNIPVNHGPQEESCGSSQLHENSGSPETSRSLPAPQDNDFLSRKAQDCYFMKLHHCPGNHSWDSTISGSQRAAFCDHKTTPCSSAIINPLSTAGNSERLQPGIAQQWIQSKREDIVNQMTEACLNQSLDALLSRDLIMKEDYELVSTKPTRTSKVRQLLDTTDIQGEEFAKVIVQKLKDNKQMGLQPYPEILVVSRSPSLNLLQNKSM
Summary of the method: as §1

ROCK-I(h) = ROCK-I(h) (Homo sapiens, UniProt Q13464)
Summary of the method: as §1

Ron(h) = Ron(h) (Homo sapiens, UniProt Q04912)
Summary of the method: as §1

SAPK4(h) = SAPK4(h) (Homo sapiens, UniProt O15264)
Chain of SAPK4(h) (O15264 whole entry): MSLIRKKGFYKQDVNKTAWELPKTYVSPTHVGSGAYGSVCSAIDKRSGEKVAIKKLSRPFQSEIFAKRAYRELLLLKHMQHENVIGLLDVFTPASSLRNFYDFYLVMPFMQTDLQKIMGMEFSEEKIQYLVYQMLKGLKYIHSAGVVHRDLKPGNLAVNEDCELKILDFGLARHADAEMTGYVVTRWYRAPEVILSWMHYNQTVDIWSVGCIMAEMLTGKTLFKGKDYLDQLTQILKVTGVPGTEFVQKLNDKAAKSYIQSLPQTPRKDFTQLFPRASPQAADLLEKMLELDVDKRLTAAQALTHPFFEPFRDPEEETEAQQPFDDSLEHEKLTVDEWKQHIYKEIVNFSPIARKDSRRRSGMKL
Summary of the method: as §1

SGK(h) = SGK(h) (Homo sapiens, UniProt O00141)
Summary of the method: as §1

TAO1(h) = TAO1(h) (Homo sapiens, UniProt Q7L7X3)
Summary of the method: as §1

cKit(D816V)(h) = cKit(D816V)(h) (Homo sapiens, UniProt P10721, D816V)
Summary of the method: as §1

eEF-2K(h) = eEF-2K(h) (Homo sapiens, UniProt O00418)
Summary of the method: as §1

Chain of CDK5/p35(h) (Q00535 whole entry): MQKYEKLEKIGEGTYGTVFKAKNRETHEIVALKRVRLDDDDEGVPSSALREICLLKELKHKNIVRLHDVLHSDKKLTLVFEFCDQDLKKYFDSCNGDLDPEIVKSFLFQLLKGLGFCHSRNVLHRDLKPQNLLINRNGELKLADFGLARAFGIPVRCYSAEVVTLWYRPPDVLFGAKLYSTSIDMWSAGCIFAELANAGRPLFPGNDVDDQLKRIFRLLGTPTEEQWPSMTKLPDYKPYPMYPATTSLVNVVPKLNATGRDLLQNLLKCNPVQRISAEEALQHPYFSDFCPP
Chain of CDK5/p35(h) (Q15078 whole entry partner): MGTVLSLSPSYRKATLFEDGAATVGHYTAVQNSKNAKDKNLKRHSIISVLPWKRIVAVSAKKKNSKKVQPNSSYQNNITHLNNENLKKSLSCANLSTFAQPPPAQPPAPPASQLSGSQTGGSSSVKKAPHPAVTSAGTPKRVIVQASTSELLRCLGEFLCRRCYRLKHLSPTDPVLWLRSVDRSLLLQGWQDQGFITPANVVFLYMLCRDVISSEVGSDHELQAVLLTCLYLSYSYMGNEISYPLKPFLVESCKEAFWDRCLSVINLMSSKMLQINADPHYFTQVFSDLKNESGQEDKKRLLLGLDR

| SMILES | inhibition at 0.1 µM (CDK5/p35(h)) [%] | inhibition at 0.1 µM (CDK6/cyclinD3(h)) [%] | inhibition at 0.1 µM (CHK2(I157T)(h)) [%] | inhibition at 0.1 µM (CK2(h)) [%] | inhibition at 0.1 µM (CaMKIIβ(h)) [%] | inhibition at 0.1 µM (CaMKIV(h)) [%] | inhibition at 0.1 µM (DMPK(h)) [%] | inhibition at 0.1 µM (EGFR(L861Q)(h)) [%] | inhibition at 0.1 µM (EphA4(h)) [%] | inhibition at 0.1 µM (EphB2(h)) [%] | inhibition at 0.1 µM (FGFR1(V561M)(h)) [%] | inhibition at 0.1 µM (Fer(h)) [%] | inhibition at 0.1 µM (Fes(h)) [%] | inhibition at 0.1 µM (Itk(h)) [%] | inhibition at 0.1 µM (Lyn(h)) [%] | inhibition at 0.1 µM (Lyn(m)) [%] | inhibition at 0.1 µM (MAPK1(h)) [%] | inhibition at 0.1 µM (NEK2(h)) [%] | inhibition at 0.1 µM [1] [%] | inhibition at 0.1 µM (PKBγ(h)) [%] | other results |
| --- | --- | --- | --- | --- | --- | --- | --- | --- | --- | --- | --- | --- | --- | --- | --- | --- | --- | --- | --- | --- | --- |
| Cc1cc2c(F)c(Oc3nc(Nc4cc(C5CC5)[nH]n4)cc(N4CCN(C)CC4)n3)ccc2[nH]1 [Compound 10] | 20 | -5 | 30 | 8 | -5 | -25 | -4 | 2 | 52 | 47 | 101 | 38 | 48 | 31 | 100 | 98 | -4 | 6 | 0 | -10 | inhibition at 0.1 µM (PKCμ(h)): 7%; inhibition at 0.1 µM (PKG1β(h)): -11%; inhibition at 0.1 µM (Pyk2(h)): 64%; inhibition at 0.1 µM (RIPK2(h)): 1%; inhibition at 0.1 µM (ROCK-I(h)): -15%; inhibition at 0.1 µM (Ron(h)): 34%; inhibition at 0.1 µM (SAPK4(h)): -13%; inhibition at 0.1 µM (SGK(h)): -38%; inhibition at 0.1 µM (TAO1(h)): 24%; inhibition at 0.1 µM (cKit(D816V)(h)): 33%; inhibition at 0.1 µM (eEF-2K(h)): -15% |
| Cc1cc2c(F)c(Oc3nc(Nc4cc(C5CC5)[nH]n4)cc(N4CCNCC4)n3)ccc2[nH]1 [Compound 11, N-(5-cyclopropyl-1H-pyrazol-3-yl)-2-((4-fluoro-2-methyl-1H-indol-5-yl)oxy)-6-(piperazin-1-yl)pyrimidin-4-amine] | 78 | 11 | -1 | 5 | 8 | -1 | -16 | 34 | 47 | 76 | 101 | 45 | 54 | 54 | 99 | 101 | -10 | -7 | 1 | -18 | inhibition at 0.1 µM (PKCμ(h)): -7%; inhibition at 0.1 µM (PKG1β(h)): -2%; inhibition at 0.1 µM (Pyk2(h)): 63%; inhibition at 0.1 µM (RIPK2(h)): 13%; inhibition at 0.1 µM (ROCK-I(h)): -15%; inhibition at 0.1 µM (Ron(h)): 43%; inhibition at 0.1 µM (SAPK4(h)): 3%; inhibition at 0.1 µM (SGK(h)): -19%; inhibition at 0.1 µM (TAO1(h)): 26%; inhibition at 0.1 µM (cKit(D816V)(h)): 38%; inhibition at 0.1 µM (eEF-2K(h)): 10% |
